Type in all cases: in vivo
For one assay, the system named is aged rats (24 months). Briefly: Passive avoidance response in aged rats (24 months). The settings on record: 20 mg/kg 60 days, PAR reproduction 24 hours after learning; for Number of the rats, which did not entry dark chamber (%): 20 mg/kg. Here is the method: White nondescript male rats (Wistar line): to adult animals at age 3 months with body weight 250-300 g and aged 24 month old animals with body weight 350-450 g were used in the study. Nooglutyl at dose level 20 mg/kg and Compound I were administered to aged rats intraperitoneally for 2 months followed by assessment of the effect on learning capacity impaired by age and neurological deficit. Analysis of variance with Student's test, variant portion method and U-test were employed for data processing.
Impact of Compound I on memory disorders in aged animals. To develop passive avoidance response (PAR) in rats the unit supplied by Lafayette Instrument Co., (USA) (Ader et al. Retention of a passive avoidance response as a function of the intensity and duration of electric shock. Psycho Sci. 1972, v. 26, p. 125-128; Voronina T. A. et al. “Textbook for Experimental (Preclinical Study) of novel pharmacological compounds”. Moscow, Medicina. 2005, p. 253-263 and 308-320) was used. […] Animals preferring illuminated platform were not used in this experiment. In the dark chamber the animal received single pain stimulus with electric current (0.45 mA), duration of the stimulus was determined from the running out of the animal from the dark chamber.

For a further assay, the system named is rats with amnesia. As to the kind of experiment: Antiamnestic activity: passive avoidance response (PAR) with amnesia by maximum electric shock. The note with it: for Time of presence of animals while PAR reproduction (seconds) in the dark chamber / Time of presence of animals while PAR reproduction (seconds) on the illuminated platform: rats with electric shock amnesia, 24 hours after learning; for Dose level with statistically significant antiamnestic effect of the same intensity: PAR, electric shock amnesia, intraperitoneally. Here is the method:
White nondescript male rats with body weight 250-280 g were used in the experiments. Each dose level was studied in 10 animals. Control animals received equivalent volume of distilled water. Nooglutyl was used as reference agent. Study compounds were administered intraperitoneally 40 minutes before the experiment. Experiment was carried out on the standard automated unit for passive avoidance response (Passive Avoidance) supplied by Lafayette Instrument Co., (USA) (Ader et al. Retention of a passive avoidance response as a function of the intensity and duration of electric shock. Psycho Sci. 1972, v. 26, p. 125-128; Voronina T. A. et al. “Textbook for Experimental (Preclinical Study) of novel pharmacological compounds”. Moscow, Medicina. 2005, p. 253-263 and 308-320). The unit was designed as small platform situated 1 m above the floor, which was illuminated with special lamp, and dark chamber with electrode floor connected with the platform. The rat was placed on illuminated platform in front of the entry to the dark chamber with its tail directed to the entry; the animal preferred dark chamber and quickly ran into it. In the dark chamber the animal received single pain stimulus with electric current (0.45 mA) and memorized that it was dangerous to enter dark chamber. Duration of the stimulus was determined from the running out of the animal from the dark chamber. To achieve amnesia maximum electric shock was used (50 Hz, 0.2 sec), which was made through corneal electrodes immediately after learning. Electric shock caused obliteration of the memory trace. Test for reproduction of passive avoidance response (PAR) (for retention of memory trace) was performed 24 hours after learning session and electric shock. The animal was placed on illuminated platform once again, and time of the presence on illuminated platform and dangerous dark chamber (no current was conducted to the floor during reproduction of PAR).
Control trained animals with reproduction of PAR without electric shock preferred to stay on illuminated platform. Obliteration of training with electric shock causes amnesia in the animals; as a result, the animals with short latent period enter dark chamber and stay there considerably longer than animals without amnesia (Table 2).

The test system of assay [1] is rats with hemorrhagic stroke. Briefly: Hemorrhagic stroke: neurological deficit (Stroke-index McGrow scale). The settings on record: for Number of animals with neurological symptoms, %: Circus movements / Number of animals with neurological symptoms, %: Palsy of 1-4 extremities / Number of animals with neurological symptoms, %: Paresis of 1-4 extremities / Number of animals with neurological symptoms, %: Weakness of extremities: 20 mg/kg single dose intraperitoneally; for Rats with severe neurological symptoms: control with hemorrhagic stroke 60%. The source says:
White nondescript male rats with body weight 200-250 g, which lived in vivarium and had feed (standard palletized feed) and water ad libitum, with natural alternation of day and night, were used in the experiments. Hemorrhagic stroke (local cerebral hemorrhage) was simulated according to method by A. N. Makarenko et al. (Method of local hemorrhage simulation I various structures of the brain in experimental animals. Journal Visshei Nervnoy Deyatelnosti—Journal of Higher Nervous Activities, 2002, v. 52, No 6, p. 765-768). In nembutal-anesthetized rats (40 mg/kg, i.m.) destruction of the brain tissue in capsule interna area was made with the use of special device (mandarin-knife) followed by application of blood (0.02-0.03 ml) taken from under the rat's tongue to the damaged area (within 2-3 minutes). False-operated animals underwent scalping and craniotomy. The animals were divided into 5 groups: intact rats, false-operated rats, animals with hemorrhagic stroke received nooglutyl at 20 mg/kg, and animals with hemorrhagic stroke received Compound I at 20 mg/kg. Effects were recorded within 24 hours and 14 days after the surgery. Learning ability and memory of the rats was examined in the model of passive avoidance response (PAR, Passive Avoidance supplied by Lafayette Instrument Co., USA). To determine neurological deficit in the animals Stroke-index McGrow scale modified by I. V. Gannushkina (Functional architectonics of the brain, Moscow, Medicina, 1977, 224 p.) was used. The severity of the condition was determined by the sum of the points. The number of rats with mild symptoms up to 2.5 points of Stroke-index scale (apathy, weakness of the extremities, unilateral semiptosis, tremor, circus movements) and severe manifestations of neurological disorders (3 to 10 points)—paresis of the extremities, palsy of low extremities, lateral position. The animals received single dose of nooglutyl and Compound I at the same dose 20 mg/kg intraperitoneally within 3-3.5 hours after the surgery. Controlled animals were treated with saline. At onset of the experiment each group comprised 15-20 animals. Mortality of the rats was recorded throughout the observation period (14 days). Statistical analysis was made using parametrical and non-parametrical methods and Biostat software. Nimodipin administered at 01.mg/kg according to above scheme was considered as a standard.

For assay [2], the system named is mice exposed to hypobaric hypoxia. As to the kind of experiment: Acute hypobaric hypoxia in flow-exhaust chamber. Here is the method: White nondescript male mice with body weight 22-28 g were used in the experiments. Each dose level was studied in 10 animals. Control animals received equivalent volume of distilled water. Nooglutyl was used as reference agent. Study compounds were administered intraperitoneally 40 minutes before the experiment.
Acute hypobaric hypoxia was simulated in flow-exhaust chamber. Pressure was measured with altimeter, and elevation speed with variometer. The animals were “elevated” at the speed 20 m/s to the stage at 11000 m. The exposure lasted 10 minutes. Then the animals were mover down to the baseline level for 5 minutes. Hypoxia with hypercapnia in hermovolume was created by placement of the animal into 200 ml hermetically sealed glass vessels. Life period of the animals under hypoxic conditions was recorded. Each group comprised 10 animals.

Where [3] appears, read: 30 mg/kg intraperitoneally 40 minutes before the experiment.
The mark [4] stands for this setting: 60 mg/kg intraperitoneally 40 minutes before the experiment.

The values that follow come from patent US8030493B2, “Monovalent and divalent salts of N-(5-hydroxynicotinoil) -L-glutamic acid exhibiting psychotropic (antidepressant and anxiolytic), neuroprotective, geroprotective and cerebroprotective action” (Obschestvo S Ogranichennoy Otvetstvennostyu “Natsionalnaya …, priority 2006, dated 2011).

Marks after values point to notes of the source that are not given here.

Take `O=C([O-])CC[C@H](NC(=O)c1cncc(O)c1)C(=O)[O-].[Ca+2]` [Compound I, Calcium N-(5-hydroxynicotinoyl)-L-glutamate]: in the assay with aged rats (24 months), the “Latent period of entry to dark chamber (c)” value came to 96.9 ± 16.1 c and the “Number of the rats, which did not entry dark chamber (%)” value is 60%. Moreover, in the assay with rats with amnesia (25 mg/kg intraperitoneally), the “Time of presence of animals while PAR reproduction (seconds) in the dark chamber” value (“Time of presence … in the dark chamber” below) is 64.2 ± 6.4 s and the “Time of presence of animals while PAR reproduction (seconds) on the illuminated platform” value (shortened to “Time of presence … on the illuminated platform”) is 55.8 ± 9.3 s. Also, in the assay with rats with amnesia (50 mg/kg intraperitoneally), the “Time of presence … in the dark chamber” value amounted to 40.6 ± 8.3 s and the “Time of presence … on the illuminated platform” value is 79.4 ± 12.8 s. The “Dose level with statistically significant antiamnestic effect of the same intensity” value in the assay on rats with amnesia was determined as 25 mg/kg. For the same molecule, in assay [1] (Day 1), the “Number of animals with neurological symptoms, %: Circus movements” value came to 10%; the “Number of animals with neurological symptoms, %: Palsy of 1-4 extremities” value was 0%; the “Number of animals with neurological symptoms, %: Paresis of 1-4 extremities” value came to 10%; the “Number of animals with neurological symptoms, %: Weakness of extremities” value was 20* %. In addition, in assay [1] (Day 14), the “Number of animals with neurological symptoms, %: Circus movements” value worked out at 10%; the “Number of animals with neurological symptoms, %: Palsy of 1-4 extremities” value was 0%; the “Number of animals with neurological symptoms, %: Paresis of 1-4 extremities” value is given as 5* %; the “Number of animals with neurological symptoms, %: Weakness of extremities” value is reported as 0%. Further, in assay [1] (Day 14), the “Rats with severe neurological symptoms” value is recorded as 15%. In addition, the “Life interval of mice (minutes) exposed to hypobaric hypoxia” value (“Life interval of mice (minutes) exposed” for short) in assay [2] (setting [3]) turned out to be 6.51 ± 0.82 min. Further, the “Life interval of mice (minutes) exposed” value in assay [2] (setting [4]) turned out to be 9.17 ± 0.91 min.

For `O=C(O)CC[C@H](NC(=O)c1cncc(O)c1)C(=O)O` [Nooglutyl, N-(5-hydroxynicotinoyl)-L-glutamic acid, reference compound], in the assay on aged rats (24 months), the “Latent period of entry to dark chamber (c)” value is 97.1 ± 20.3 c and the “Number of the rats, which did not entry dark chamber (%)” value came to 60%. In addition, in the assay with rats with amnesia (25 mg/kg intraperitoneally), the “Time of presence … in the dark chamber” value is 73.3 ± 13.4 s and the “Time of presence … on the illuminated platform” value came to 46.7 ± 13.4 s. For the same molecule, in the assay on rats with amnesia (50 mg/kg intraperitoneally), the “Time of presence … in the dark chamber” value is 65.7 ± 7.1 s and the “Time of presence … on the illuminated platform” value was determined as 54.3 ± 10.2 s. The “Dose level with statistically significant antiamnestic effect of the same intensity” value with rats with amnesia was 50 mg/kg. Moreover, in assay [1] (Day 1), the “Number of animals with neurological symptoms, %: Circus movements” value is reported as 5%; the “Number of animals with neurological symptoms, %: Palsy of 1-4 extremities” value is 0%; the “Number of animals with neurological symptoms, %: Paresis of 1-4 extremities” value came out at 25%; the “Number of animals with neurological symptoms, %: Weakness of extremities” value is given as 30* %. Moreover, in assay [1] (Day 14), the “Number of animals with neurological symptoms, %: Circus movements” value came out at 0%; the “Number of animals with neurological symptoms, %: Palsy of 1-4 extremities” value came out at 0%; the “Number of animals with neurological symptoms, %: Paresis of 1-4 extremities” value is given as 20* %; the “Number of animals with neurological symptoms, %: Weakness of extremities” value turned out to be 10%. The “Rats with severe neurological symptoms” value in assay [1] (Day 14) is reported as 25%. In addition, the “Life interval of mice (minutes) exposed” value in assay [2] (setting [3]) came out at 4.1 ± 0.77 min. For the same molecule, in assay [2] (setting [4]), the “Life interval of mice (minutes) exposed” value was determined as 7.68 ± 0.54 min.
